{"source": "patent US20250154165A1", "about": "“MULTIANTENNARY GLYCOLIPID MIMETICS” (CONSEJO SUPERIOR DE INVESTIGACIONES CIENTÍFICAS (CSIC), priority 2021, published 2025)", "key": {"[1]": {"system": "bone marrow-derived dendritic cells (BMDC) from MyD88 KO mice", "test": "MyD88 dependency of IL-12p40 production (BMDCs in vitro)", "type": "cell-based", "conditions": "BMDC from MyD88 KO mice compared with BMDC from wild-type mice; dose-dependent (FIG. 15)", "from_the_text": "FIG. 15. […] The effect was dose-dependent, and the difference became more pronounced at a higher concentration.\nTo determine whether the adjuvancy function of the representative compound 12 is MyD88-dependent or not, we performed experiments with immune cells isolated from MyD88 knocked-out (KO) mice. […] Data are dose-dependent and differences become more pronounced at the higher concentrations. […] Taken together, the results support that compound 12 adjuvancy function is MyD88-dependent."}, "[2]": {"system": "LPS-induced inflammation in B6 mice", "test": "Suppression of LPS-induced inflammation in vivo", "conditions": "injected twice in a half hour time after LPS-treatment (FIG. 3)", "protocol": "FIG. 3. […] The in vivo capability of compound 12 in suppressing LPS-induced inflammation in B6 mice was assessed as indicated in the scheme.\nTo determine the anti-inflammatory function in vivo, we assessed the capability of compound 12 in suppressing LPS-induced inflammation in B6 mice."}, "[3]": {"system": "Splenocytes", "test": "Immune-stimulating function of compounds alone (splenocytes in vitro)", "type": "cell-based, mouse", "protocol": "FIG. 6. […] Splenocytes were treated with the compounds of the invention alone to assess the immune-stimulating function of the compounds. Compounds 12, 18, 22, 27, and 29 induced significant IFNγ secretion, and compound 8 induced significant IL-4 secretion.\n(§1) The whole spleen was surgically removed from a mouse and mechanically dissociated into a single cell suspension of splenocytes, which were then cultured in the complete RPMI 1640 medium (cRPMI). Human peripheral blood mononuclear cells (PBMCs) from healthy volunteers were collected from whole blood through gradient-centrifugation with Histopaque-1077 (Sigma-Aldrich).\nSplenocytes were treated with the compounds of the invention alone to assess the immune-stimulating function of the compounds by measuring their ability to promote the secretions of IFN-γ and IL-4."}, "[4]": {"system": "bone marrow-derived macrophages (BMDM) treated with LPS", "test": "Suppression of LPS-induced inflammation in bone marrow-derived macrophages (BMDM in vitro)", "type": "cell-based", "conditions": "BMDM (FIG. 2)", "from_the_text": "Since macrophage is the major responder to LPS-induced inflammation, we assessed the capability of selected compounds to suppress LPS-induced inflammation in bone marrow-derived macrophages (BMDM)."}, "[5]": {"system": "JNK", "test": "Signal transduction by multiplex bead array: JNK phosphorylation", "type": "cell-based", "conditions": "comparing to LPS treatment alone (FIG. 4)", "from_the_text": "(§2) FIG. 4. […] Compound 12, a representative compound of the invention, was examined in term of signal transduction to explore how the new compounds exert their suppressive effect, using the multiplex bead array.\n(§3) Using the multiplex bead array, we examined how the new compounds might exert their suppressive effect in term of signal transduction."}, "[6]": {"system": "ERK", "test": "Signal transduction by multiplex bead array: ERK phosphorylation", "type": "cell-based", "conditions": "comparing to LPS treatment alone (FIG. 4)", "from_the_text": "as §2, §3"}, "[7]": {"system": "p38", "test": "Signal transduction by multiplex bead array: p38 phosphorylation", "type": "cell-based", "conditions": "comparing to LPS treatment alone (FIG. 4)", "from_the_text": "as §2, §3"}, "[8]": {"system": "OVA-induced AHR mouse model", "test": "Suppression of OVA-induced airway hyperreactivity (AHR) in vivo", "conditions": "OVA-induced AHR mouse model (FIG. 7)", "protocol": "FIG. 7. […] The capability of selected compounds 8, 12, 18, and 27 in suppressing Th2 inflammation in vivo was assessed using the OAV-induced AHR mouse model.\n(§4) For ovalbumin (OVA) challenge, mice were sensitized intraperitoneally (i.p.) with 50 μg of OVA with 2% alhydrogel adjuvant (InvivoGen). Mice were challenged three times with 50 μg of OVA on day 7 post-sensitization, either daily or every other day. Mice were sacrificed the day after the last OVA challenge. The scheme of the OT-1 adoptive transfer mouse model for examining the proliferation of CD8^+ T cells in adjuvanting OVA challenge is described in FIG. 13.\nMice were anesthetized with 100 mg per kg body weight pentobarbital (Sigma-Aldrich), tracheotomised and mechanically ventilated via the FinePointe RC system (Buxco Research Systems, Wilmington, NC). Lung function was assessed by measuring lung resistance and dynamic compliance in response to increasing doses of aerosolized methacholine (1.25-40 mg/mL, Sigma-Aldrich).\n(§5) Using the Th2 OVA-induced AHR mouse model, we assessed the capability of selected compounds 8, 12, 18, and 27 in suppressing Th2 inflammation."}, "[9]": {"system": "OVA-induced AHR mouse model", "test": "Suppression of OVA-induced airway inflammation in vivo (IL-13 and IL-4 in BALF and lungs)", "conditions": "OVA-induced AHR experiment", "protocol": "FIG. 8. […] The bronchoalveolar lavage fluid (BALF) from mice in the OAV-induced AHR experiment was examined forth IL-13 and IL-4 levels.\nFIG. 9. […] The lungs from mice in the OAV-induced AHR experiment was examined for their IL-13 and IL-4 protein level.\nFIG. 10. […] The lungs from mice in the OAV-induced AHR experiment was examined for their IL-13 and IL-4 mRNA levels.\nas §4\nUpon exposure of the trachea, the lungs were lavaged twice with 1 mL of PBS supplemented with 2% fetal calf serum (FCS). BALF was pooled and bronchoalveolar (BAL) cells were pelleted by centrifugation and fixed onto cytospin slides. The slides were stained with Diff-Quik solution (Polysciences Inc) and BAL differential cell count was performed.\nas §5"}, "[10]": {"system": "DC-maturation marker CD86 in the spleen of mice", "test": "DC maturation in vivo (CD86 mRNA in spleen)", "conditions": "mice injected with the compound (FIG. 12)", "protocol": "FIG. 12. […] The capability of selected compounds 8, 12, 18, 27, and 29 in promoting DC maturation in vivo was assessed by the mRNA level of DC-maturation marker CD86 in the spleen of mice injected with the compounds of the invention.\nThe capability of selected compounds 8, 12, 18, 27, and 29 in promoting DC maturation in vivo was assessed by the mRNA level of DC-maturation marker CD86 in the spleen of mice injected with the compounds of the invention."}, "[11]": {"system": "Splenocytes treated with LPS", "test": "Suppression of LPS-induced inflammation (splenocytes in vitro)", "type": "cell-based, mouse", "conditions": "splenocytes treated concurrently with compound and LPS (FIG. 1)", "protocol": "FIG. 1. […] Splenocytes were treated concurrently with the compounds of the invention and LPS to assess the suppressive function of compounds on LPS-induced inflammation, with several compounds showing prominent suppressive function.\nas §1\nSplenocytes were treated concurrently with the compounds of the invention and LPS to assess the suppressive function of compounds on LPS-induced inflammation."}, "[12]": {"conditions": "splenocytes treated with compound alone (FIG. 6)"}, "[13]": {"conditions": "bronchoalveolar lavage fluid (FIG. 8)"}}, "data": [{"smiles": "CCCCCCCCCCCCNC(=O)C(COC1C(O)C(O)C(O)C2COC(=O)N21)NC(=O)CCCCCCCCCCC", "note": "(stereo not drawn) [Compound 12]", "values": [{"measurement": "IL-12p40 production in response to compound", "setting": "[1]", "result": "severely curtailed"}, {"measurement": "level of IL-6 in sera", "setting": "[2]", "result": "significantly suppressed"}, {"measurement": "level of TNFα in sera", "setting": "[2]", "result": "significantly suppressed"}, {"measurement": "Th1/Th2 bias", "setting": "[3]; concluded from IFNγ and IL-4 secretion of splenocytes (FIG. 6)", "result": "Th1-biased"}, {"measurement": "IFNγ secretion", "setting": "[3]; [12]", "result": "effective in promoting the productions of IFNγ"}, {"measurement": "IL-4 secretion", "setting": "[3]; [12]", "result": "not IL-4"}, {"measurement": "suppression of LPS-induced inflammation", "setting": "[4]", "result": "particularly efficient in suppressing LPS-induced inflammation"}, {"measurement": "suppression of IL-6", "setting": "[4]; LPS-induced", "result": "significant suppression"}, {"measurement": "suppression of TNFα", "setting": "[4]; LPS-induced", "result": "significant suppression"}, {"measurement": "phosphorylation of JNK", "setting": "[5]", "result": "not JNK"}, {"measurement": "phosphorylation of ERK", "setting": "[6]", "result": "significantly reduced"}, {"measurement": "phosphorylation of p38", "setting": "[7]", "result": "significantly reduced"}, {"measurement": "suppression of airway hyperreactivity (AHR)", "setting": "[8]", "result": "can suppress AHR onset"}, {"measurement": "IL-4 level in BALF", "setting": "[9]; [13]", "result": "significantly suppressed"}, {"measurement": "IL-13 level in BALF", "setting": "[9]; [13]", "result": "significantly suppressed"}, {"measurement": "IL-4 mRNA level in lungs", "setting": "[9]; lung mRNA (FIG. 10)", "result": "could significantly suppress"}, {"measurement": "IL-13 mRNA level in lungs", "setting": "[9]; lung mRNA (FIG. 10)", "result": "significantly suppressed"}, {"measurement": "IL-4 protein level in lungs", "setting": "[9]; lung protein (FIG. 9)", "result": "significantly suppressed"}, {"measurement": "IL-13 protein level in lungs", "setting": "[9]; lung protein (FIG. 9)", "result": "significantly suppressed"}, {"measurement": "CD86 mRNA expression in the spleens of mice", "setting": "[10]", "result": "significant increase"}, {"measurement": "suppressive function on LPS-induced inflammation", "setting": "[11]", "result": "prominent inflammation-suppressing function"}]}]}
